Reference: PubChem BioAssay (NCI)
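The compound was tested at five concentrations on cells cultured in 96-well plates, with a 48-hour exposure period. Abbreviation: GI50, concentration required for 50% inhibition of growth. TGI: concentration producing complete growth inhibition.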

Assays:
Assay in all cases: NCI anticancer screen, dose series, 48 h
786-0 renal = test system: 786-0 renal
A498 renal = test system: A498 renal
A549 NSCLC = test system: A549 NSCLC
ACHN renal = test system: ACHN renal
BT-549 breast = test system: BT-549 breast
CAKI-1 renal = test system: CAKI-1 renal
CCRF-CEM leukemia = test system: CCRF-CEM leukemia
COLO 205 colon = test system: COLO 205 colon
DU-145 prostate = test system: DU-145 prostate
EKVX NSCLC = test system: EKVX NSCLC
HCC-2998 colon = test system: HCC-2998 colon
HCT-116 colon = test system: HCT-116 colon
HCT-15 colon = test system: HCT-15 colon
HL-60(TB) leukemia = test system: HL-60(TB) leukemia
HOP-62 NSCLC = test system: HOP-62 NSCLC
HOP-92 NSCLC = test system: HOP-92 NSCLC
HS 578T breast = test system: HS 578T breast
HT29 colon = test system: HT29 colon
IGROV1 ovarian = test system: IGROV1 ovarian
K-562 leukemia = test system: K-562 leukemia
KM12 colon = test system: KM12 colon
LOX IMVI melanoma = test system: LOX IMVI melanoma
M14 melanoma = test system: M14 melanoma
MALME-3M melanoma = test system: MALME-3M melanoma
MCF7 breast = test system: MCF7 breast
MDA-MB-231 breast = test system: MDA-MB-231 breast
MDA-MB-435 = test system: MDA-MB-435
MOLT-4 leukemia = test system: MOLT-4 leukemia
NCI-H226 lung = test system: NCI-H226 lung
NCI-H23 lung = test system: NCI-H23 lung
NCI-H460 lung = test system: NCI-H460 lung
NCI-H522 lung = test system: NCI-H522 lung
NCI/ADR-RES ovarian = test system: NCI/ADR-RES ovarian
OVCAR-3 ovarian = test system: OVCAR-3 ovarian
OVCAR-4 ovarian = test system: OVCAR-4 ovarian
OVCAR-5 ovarian = test system: OVCAR-5 ovarian
OVCAR-8 ovarian = test system: OVCAR-8 ovarian
PC-3 prostate = test system: PC-3 prostate
RPMI-8226 leukemia = test system: RPMI-8226 leukemia
RXF 393 renal = test system: RXF 393 renal
SF-268 CNS = test system: SF-268 CNS
SF-295 CNS = test system: SF-295 CNS
SF-539 CNS = test system: SF-539 CNS
SK-MEL-2 melanoma = test system: SK-MEL-2 melanoma
SK-MEL-28 melanoma = test system: SK-MEL-28 melanoma
SK-MEL-5 melanoma = test system: SK-MEL-5 melanoma
SK-OV-3 ovarian = test system: SK-OV-3 ovarian
SN12C renal = test system: SN12C renal
SNB-19 CNS = test system: SNB-19 CNS
SNB-75 CNS = test system: SNB-75 CNS
SR leukemia = test system: SR leukemia
SW-620 colon = test system: SW-620 colon
T-47D breast = test system: T-47D breast
TK-10 renal = test system: TK-10 renal
U251 CNS = test system: U251 CNS
UACC-257 melanoma = test system: UACC-257 melanoma
UACC-62 melanoma = test system: UACC-62 melanoma
UO-31 renal = test system: UO-31 renal

SMILES: O=C1/C(=C/c2ccc(F)c(F)c2)CN(C(=O)C(Cl)Cl)C/C1=C\c1ccc(F)c(F)c1
- GI50 (786-0 renal): 181 nM
- TGI (786-0 renal): 357 nM
- GI50 (A498 renal): 183 nM
- TGI (A498 renal): 550 nM
- GI50 (A549 NSCLC): 262 nM
- TGI (A549 NSCLC): 1090 nM
- GI50 (ACHN renal): 77.6 nM
- TGI (ACHN renal): 249 nM
- GI50 (BT-549 breast): 83.7 nM
- TGI (BT-549 breast): 340 nM
- GI50 (CAKI-1 renal): 188 nM
- TGI (CAKI-1 renal): 551 nM
- GI50 (CCRF-CEM leukemia): 26.6 nM
- TGI (CCRF-CEM leukemia): > 100000 nM
- GI50 (COLO 205 colon): 175 nM
- TGI (COLO 205 colon): 756 nM
- GI50 (DU-145 prostate): 312 nM
- TGI (DU-145 prostate): 925 nM
- GI50 (EKVX NSCLC): 188 nM
- TGI (EKVX NSCLC): 506 nM
- GI50 (HCC-2998 colon): 93.4 nM
- TGI (HCC-2998 colon): 235 nM
- GI50 (HCT-116 colon): 32.6 nM
- TGI (HCT-116 colon): 120 nM
- GI50 (HCT-15 colon): 30.3 nM
- TGI (HCT-15 colon): 164 nM
- GI50 (HL-60(TB) leukemia): 113 nM
- TGI (HL-60(TB) leukemia): 970 nM
- GI50 (HOP-62 NSCLC): 239 nM
- TGI (HOP-62 NSCLC): 745 nM
- GI50 (HOP-92 NSCLC): 211 nM
- TGI (HOP-92 NSCLC): 629 nM
- GI50 (HS 578T breast): 261 nM
- TGI (HS 578T breast): 1010 nM
- GI50 (HT29 colon): 35.9 nM
- GI50 (IGROV1 ovarian): 60.9 nM
- TGI (IGROV1 ovarian): 264 nM
- GI50 (K-562 leukemia): 23.5 nM
- TGI (K-562 leukemia): > 100000 nM
- GI50 (KM12 colon): 49.7 nM
- TGI (KM12 colon): 200 nM
- GI50 (LOX IMVI melanoma): 22.2 nM
- TGI (LOX IMVI melanoma): 54.9 nM
- GI50 (M14 melanoma): 168 nM
- TGI (M14 melanoma): 515 nM
- GI50 (MALME-3M melanoma): 199 nM
- TGI (MALME-3M melanoma): 539 nM
- GI50 (MCF7 breast): 42.4 nM
- TGI (MCF7 breast): 181 nM
- GI50 (MDA-MB-231 breast): 194 nM
- TGI (MDA-MB-231 breast): 692 nM
- GI50 (MDA-MB-435): 142 nM
- TGI (MDA-MB-435): 324 nM
- GI50 (MOLT-4 leukemia): 49.1 nM
- TGI (MOLT-4 leukemia): > 100000 nM
- GI50 (NCI-H226 lung): 1130 nM
- TGI (NCI-H226 lung): 5720 nM
- GI50 (NCI-H23 lung): 139 nM
- TGI (NCI-H23 lung): 428 nM
- GI50 (NCI-H460 lung): 134 nM
- TGI (NCI-H460 lung): 444 nM
- GI50 (NCI-H522 lung): 166 nM
- TGI (NCI-H522 lung): 503 nM
- GI50 (NCI/ADR-RES ovarian): 63.3 nM
- TGI (NCI/ADR-RES ovarian): 868 nM
- GI50 (OVCAR-3 ovarian): 70.9 nM
- TGI (OVCAR-3 ovarian): 234 nM
- GI50 (OVCAR-4 ovarian): 233 nM
- TGI (OVCAR-4 ovarian): 1240 nM
- GI50 (OVCAR-5 ovarian): 167 nM
- TGI (OVCAR-5 ovarian): 421 nM
- GI50 (OVCAR-8 ovarian): 56.4 nM
- TGI (OVCAR-8 ovarian): 1310 nM
- GI50 (PC-3 prostate): 47.7 nM
- TGI (PC-3 prostate): 273 nM
- GI50 (RPMI-8226 leukemia): 18.6 nM
- TGI (RPMI-8226 leukemia): 87.1 nM
- GI50 (RXF 393 renal): 182 nM
- TGI (RXF 393 renal): 399 nM
- GI50 (SF-268 CNS): 265 nM
- TGI (SF-268 CNS): 982 nM
- GI50 (SF-295 CNS): 45.4 nM
- TGI (SF-295 CNS): 210 nM
- GI50 (SF-539 CNS): 94 nM
- TGI (SF-539 CNS): 276 nM
- GI50 (SK-MEL-2 melanoma): 262 nM
- TGI (SK-MEL-2 melanoma): 785 nM
- GI50 (SK-MEL-28 melanoma): 208 nM
- TGI (SK-MEL-28 melanoma): 513 nM
- GI50 (SK-MEL-5 melanoma): 190 nM
- TGI (SK-MEL-5 melanoma): 380 nM
- GI50 (SK-OV-3 ovarian): 492 nM
- TGI (SK-OV-3 ovarian): 1780 nM
- GI50 (SN12C renal): 112 nM
- TGI (SN12C renal): 381 nM
- GI50 (SNB-19 CNS): 78.2 nM
- TGI (SNB-19 CNS): 274 nM
- GI50 (SNB-75 CNS): 290 nM
- TGI (SNB-75 CNS): 1300 nM
- GI50 (SR leukemia): 12.8 nM
- TGI (SR leukemia): > 100000 nM
- GI50 (SW-620 colon): 21.5 nM
- TGI (SW-620 colon): 55.4 nM
- GI50 (T-47D breast): 302 nM
- TGI (T-47D breast): 2050 nM
- GI50 (TK-10 renal): 258 nM
- TGI (TK-10 renal): 840 nM
- GI50 (U251 CNS): 33.1 nM
- TGI (U251 CNS): 131 nM
- GI50 (UACC-257 melanoma): 259 nM
- TGI (UACC-257 melanoma): 888 nM
- GI50 (UACC-62 melanoma): 172 nM
- TGI (UACC-62 melanoma): 365 nM
- GI50 (UO-31 renal): 98.2 nM
- TGI (UO-31 renal): 238 nM
